Results from ChEMBL document CHEMBL5725355, “Methods for treating seizure disorders and pain” (2017).

Key:
[1] = (§1) Voltage-Clamp Assay: All experiments were conducted at room temperature (22-24° C.) with an EPC-10 amplifier and Pulse software (HEKA, Lambrecht/Pfalz, Germany) in the whole-cell mode of the patch-clamp technique. Human embryonic kidney (HEK)-293 cell lines stably expressing hNav1.1, hNav1.5, hNav1.7 channels (generously provided by Dr. Christopher Lossin, University of California Davis), hNav1.4 (Frank Lehmann-Horn, University of Ulm), or hKv2.1 channels (James Trimmer, University of California Davis) were bathed in extracellular solution containing (in mM): 160 NaCl; 4.5 KCl; 1 MgCl2; 2 CaCl2; 10 HEPES [pH was adjusted to 7.4 using NaOH (310 mOsm)]. Pipettes were filled with intracellular solution containing (in mM): 145 KF; 2 MgCl2; 10 ethylene glycol tetraacetic acid; 10 HEPES (pH adjusted to 7.2 with KOH; 300 mOsm). Neuroblastoma N1E-115 cells (ATCC, Manassa, Va., USA) expressing Nav1.2 were patched with a CsF internal solution consisting of (in mM): 10 NaF; 110 CsF; 20 CsCl; 2 ethylene glycol tetraacetic acid; 10 HEPES (CsOH to pH 7.35; 300 mOsm). All pipette tip resistances were 2-4 MΩ. Series resistances of 3-10 MΩ were compensated 40-80%. All cells were voltage-clamped to a holding potential of −90 mV unless otherwise specified. The sampling frequency was 5 kHz. Na+ currents were elicited by 30-ms pulse to 0 mV from −90 mV applied every 10 s. […]
[2] = as §1; remark: listed apart in the source
[3] = as §1; remark: listed apart in the source
[4] = as §1; remark: listed apart in the source
[5] = as §1; remark: listed apart in the source
[6] = as §1; remark: listed apart in the source

Work on `Nc1nc2ccc(SC(F)(F)F)cc2s1` yielded an EC50 [1] of 22.3 µM, an EC50 [2] of 6.9 µM and an EC50 [3] of 4.5 µM. The EC50 [4] was 2.2 µM, the EC50 [5] was 5.8 µM and the EC50 [6] was 7.9 µM.
